The values that follow are results of earlier work, collected in patent US12030852B2, “Method for producing fatty alcohol esters of hydroxycarboxylic acids” (IOI Oleo GmbH, priority 2019, dated 2024).

The conditions of the data set: even if several grams are taken; short plasma half-life.

Take `CC(O)CC(=O)O` (stereo not shown) [3-hydroxybutyric acid]: the duration of ketosis result is “about three to four”.
